Measurements: patent publication US7432226B2, “Herbicidally active composition” (Bayer CropScience GmbH, priority 2003, dated 2008)

What was measured:
Settings in all cases: in vivo
[1] = system: Corn, cultivar “Lorenzo”; test: Herbicidal post-emergence action, damage to crop plants: corn
Description: (§1) Herbicidal Post-emergence Action
(§2) Seeds of monocotyledonous and dicotyledonous weeds and of crop plants are placed in sandy loam soil in plastic pots, covered with soil and cultivated in a greenhouse under good growth conditions.
(§3) Three weeks after sowing, the test plants are treated at the 3-4-leaf stage.
(§4) Stated is the respective degree of damage to the crop plants and the reduction of the damage by the herbicide/safener combinations according to the invention in percent, compared with the herbicide applied alone.

[2] = system: Barley, cultivar “Baronesse”; test: Herbicidal post-emergence action, damage to crop plants: barley Baronesse
Description: as §1, §2, §3, §4

[3] = system: Wheat, cultivar “Kanzler”; test: Herbicidal post-emergence action, damage to crop plants: wheat Kanzler
Description: as §1, §2, §3, §4

[4] = system: Barley, cultivar “Duett”; test: Herbicidal post-emergence action, damage to crop plants: barley Duett
Description: as §1, §2, §3, §4

Row | SMILES | Degree of damage [1] [%] | Degree of damage [2] [%] | Degree of damage [3] [%] | Degree of damage [4] [%]
1 | COC(=O)c1ccccc1S(=O)(=O)NC(=O)Nc1nc(C)nc(OC)n1 [herbicide A1.1, metsulfuron-methyl] | 50 | 10 | 10 | 
2 | COC(=O)c1sccc1S(=O)(=O)NC(=O)Nc1nc(C)nc(OC)n1 [herbicide A2.1, thifensulfuron-methyl] | 20 |  | 10 | 20
3 | COC(=O)c1ccccc1S(=O)(=O)NC(=O)N(C)c1nc(C)nc(OC)n1 [herbicide A3.1, tribenuron-methyl] | 10 |  | 20 | 
4 | COc1nc(C)nc(NC(=O)NS(=O)(=O)c2ccccc2Cl)n1 [herbicide A4.1, chlorsulfuron] | 70 | 10 |  | 
